The results in this text go back to ChEMBL document CHEMBL1165864, “Scavenging activity of aminoantipyrines against hydroxyl radical” (Eur J Med Chem, 2010).

Activity calls are given as the source filed them. The calls are words filed in the database; no cut-off is given here.

The assay in a line: Antioxidant activity assessed as hydroxyl radical scavenging activity at 10 mM at pH 7 by fenton reaction. Format: functional.

As for `CNc1c(C)n(C)n(-c2ccccc2)c1=O`, the result was Active.

As for `Cc1c(N)c(=O)n(-c2ccccc2)n1C`, the outcome was Active.

As to `Cc1c(N(C)C)c(=O)n(-c2ccccc2)n1C`, the outcome was Active.
